We go through four molecules from patent US20080194485A1, “Detection and Use of Prolylcarboxypeptidase” (YALE UNIVERSITY, priority 2004, published 2008).

Test [1] concerns ob/ob mice. In words: IP injection of Z-PP, food intake in ob/ob mice. The format is in vivo, mouse. How it is done: For this study 10 ob/ob mice were used. Mice were injected at the beginning of the dark phase intraperitoneally with 2 doses of 5 mg Z-PP every 12 hours and food intake was measured every 12 hours after the last injection. Control mice were injected at the same times and with the same volume of vehicle. Note that for Z-PP doses lower than 5 mg were ineffective in reducing food intake.

In the next test the test system is wild type mice. The test is described as follows: IP administration of α-MSH and MTII, food intake in wild type mice. The settings on record: 200 nmol ip. Format: in vivo, mouse. How it is done:
Wild type and PRCP KO mice were used in this study. Animals were single caged and injected with saline at the beginning of the dark phase for 3 days. For each mouse, food intake was measured at 4, 12 and 24 hours after the injection. After 3 days, animals were divided in 6 groups: 1) wild type mice receiving 200 nmol MTII in saline; 2) wild type mice receiving 200 nmol α-MSH in saline; 3) wild type mice receiving saline; 4) PRCP KO mice receiving 200 nmol of MTII in saline; 5) PRCP KO mice receiving 200 nmol α-MSH; 6) PRCP KO mice receiving saline.

For another test, the system named is POMC-GFP neurons. The test is described as follows: Whole cell patch clamp electrophysiology of POMC-GFP neurons in hypothalamic slices. The settings on record: bath application, current clamp. Format: cell-based, mouse. The method, then:
Coronal hypothalamic brain slices (˜300 μm) were prepared with a Vibratome from POMC-GFP transgenic mice. Slices were maintained at room temperature in artificial cerebrospinal fluid saturated with 95% O2 and 5% CO2. Slices were equilibrated in the recording chamber for 1 hr at 35° C. in ACSF saturated with 95% O2 and 5% CO2 prior to recordings. ACSF contains (mM): NaCl, 124; KCl, 3; CaCl2, 2; MgCl2, 2; NaH2PO4, 1.23; NaHCO3, 26; glucose, 10; pH 7.4 with NaOH. An upright fluorescence/infrared microscope with long working distance objectives (Olympus BX51WI) and fluorescence filter sets for GFP (Chroma Technology Corp) was used. Fluorescent POMC-GFP neurons were selected and a patch pipette (4-6 mega Ohm resistance) was advanced onto the surface of the neuron by a micromanipulator (Sutter 225). The pipette solution contains (in mM) K gluconate, 128; HEPES, 10; EGTA, 1; KCl, 10; MgCl2, 1; CaCl2, 0.3; (Mg)-ATP, 5; (Na)GTP, 0.3, PH.7.4. Whole cell patch clamp experiments were performed with a Multiclamp 700A amplifier (Axon Instruments, Inc). Whole cell current clamp was used to monitor the effect of α-MSH on membrane potential of recorded neurons held at resting membrane potential. […] Eletrophysiological data were analyzed with Axograph 4.9 (Axon Instruments), plotted with Igor Pro software (WaveMetrics, Lake Oswego, Oreg., USA) and presented as the mean±SEM. […]
Background: In patch-clamp work, channel activity is measured electrically.

The target of test [2] is T1, rPRCP51 (recombinant PRCP) (Homo sapiens, UniProt P42785).
T1 construct: Human PRCP cDNA, lacking the first 391 base pairs of PRCP (Prcpnt391-1845); BiP secretion signal (from vector pMT/BiP/V5-His C) (N); His tag (from vector pMT/BiP/V5-His C) (C); made in house; host or cells: Schneider 2 (Drosophila S2) cells
T1 sequence (P42785 46-496): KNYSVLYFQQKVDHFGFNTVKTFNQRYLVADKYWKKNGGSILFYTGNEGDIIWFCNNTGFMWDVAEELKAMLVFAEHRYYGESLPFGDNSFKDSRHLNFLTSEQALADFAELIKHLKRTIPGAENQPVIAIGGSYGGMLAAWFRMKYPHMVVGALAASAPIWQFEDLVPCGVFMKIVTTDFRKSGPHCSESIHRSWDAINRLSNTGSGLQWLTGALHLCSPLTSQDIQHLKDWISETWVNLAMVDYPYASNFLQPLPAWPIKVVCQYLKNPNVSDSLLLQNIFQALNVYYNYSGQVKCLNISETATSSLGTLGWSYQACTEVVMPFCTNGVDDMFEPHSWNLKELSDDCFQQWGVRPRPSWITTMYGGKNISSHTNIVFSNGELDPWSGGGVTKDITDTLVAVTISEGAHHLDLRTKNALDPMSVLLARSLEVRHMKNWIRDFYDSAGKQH
The test is described as follows: Substrate inhibition assay: rPRCP51-induced prekallikrein (PK) activation. Format: biochemical. The settings on record: at 1 mM peptide. How it is done:
Panel A: Increasing concentration of α-MSH, MSH1-12, or AgII (0.001-1 mM) were incubated with 8 nM of recombinant PRCP51 at 37° C. in microtiter plate cuvette wells with preabsorbed HK and containing 20 nM PK. The liberation of paranitroanilide (pNA) from the S2302 by the formed plasma kallikrein in the presence of the peptide was measured at 405 nm and the results are expressed as residual formed plasma kallikrein activity. The data represent the mean±SEM of three independent measurements.
pMT/BiP/V5-His C was employed as the basal plasmid in vector construction. […]
Samples containing 8 nM rPRCP51 in […] total volume were prepared in the absence or presence of increasing concentration of peptide α-MSH, MSH1-12 or AgII in HEPES carbonate buffer (137 mM NaCl, 3 mM KCl, 12 mM NaHCO3, 14.7 mM HEPES, 5.5 mM dextrose and 0.1% gelatin, pH 7.1 containing 10 mM CaCl2, and 1 mM MgCl2) in microtiter plate cuvette wells with previously absorbed HK at […] and with 20 nM PK at 37° C. The ability of purified rPRCP51 to activate PK bound to HK on plastic microtiter plates was determined in the absence or presence of increasing concentrations (0.001-1 mM) of the peptide (McCarthy et al., 2003; Shariat-Madar et al., 2002). […] The rate of hydrolysis was recorded at different concentrations of peptide and expressed as percent kallikrein activity remaining. […]

The subject of the next test is fasted rats. In words: ICV injection of α-MSH and α-MSH1-12, food intake in fasted rats. The format is in vivo, rat. The settings on record: 2.5 μg ICV, 12 hour-fasted rats. The method, then:
Eighteen male rats (200-250 gr) were used in this study. Animals with a third ventricle cannulation were purchased from Taconic Farms Inc. Rats were single caged and divided in 3 groups: animals injected with saline, animals injected with 2.5 μg of […]-MSH and animals injected with 2.5 μg of α-MSH1-12. All the rats were fasted overnight. The next morning, the animals were injected and a known amount of food was given and measured after 2 hours from re-feeding (Abbott et al., 2000).

A further test concerns rats. In words: ICV injection of B-PP, food intake in rats. The format is in vivo, rat. The method, then:
Twelve male rats (200-250 gr) were used in this study. Animals with a third ventricle cannulation were purchased from Taconic Farms Inc. […] A known amount of food was given to the animals and weighted every 24 hours.

Test [3] relates to ob/ob mice. The test is described as follows: IP injection of B-PP, food intake in ob/ob mice. Format: in vivo, mouse. The settings on record: 400 μg systemically (ip). The method, then: For this study 10 ob/ob mice were used. Mice were injected at the beginning of the dark phase intraperitoneally with 2 doses of […] of B-PP every 24 hours and food intake was measured before each injection and every 24 hours after the last administration. Control mice were injected at the same times and with same volume of vehicle.

Residues, ends and D or L forms follow the SMILES beside them. *: point of attachment. Cbz = O=C(OCc1ccccc1)*

In the case of `O=C[C@@H]1CCCN1C(=O)[C@@H]1CCCN1C(=O)OCc1ccccc1` [Z-PP, N-benzyloxycarbonyl-prolyl-prolinal] (Cbz-Pro-Pro-aldehyde), the “food intake compared to vehicle controls” value with ob/ob mice [1] (5 mg ip, after 24 hours from the last injection) is “no difference”. Further, the “effect on food intake” value in the test with ob/ob mice [1] (5 mg ip, ob/ob mice) is “suppress food intake, but with lower efficacy than that of B-PP”. The “effect in reducing food intake” value with ob/ob mice [1] (doses lower than 5 mg ip, ob/ob mice) is recorded as “ineffective”.
“Ac-Nle^4-c[Asp^5, D-Phe^7, Lys^10] α-MSH-(4-10)-NH2 [MTII]”: the “food intake compared to 100% controls” value in the test with wild type mice stood at 35.5%.
In the case of “Ac-STSMEHFRWGKP-COOH (Ac-STSMEHFRWGKP-OH) [α-MSH1-12, putative product of PRCP hydrolysis of α-MSH, lacks the C-terminal Val]”, the “hyperpolarization of POMC membrane potential” value in the test on POMC-GFP neurons is reported as “undetectable”. In test [2], the “inhibition of rPRCP51 activity” value was “about 20%”. The “effect on food intake compared to saline controls” value in the test with fasted rats is “did not significantly affect food intake”. This molecule also came in with a food intake with fasted rats (2 hours from re-feeding) of 8.89 ± 0.90 g.
With “t-butyl carbamate (BOC)-prolyl prolinal [B-PP]”, in the test on rats (after 24 hours from the administration, controls 94.91%), the “food intake, percent” value worked out at 36.7%. In the test with rats (after 48 hours from the administration, controls 97.67%), the “food intake, percent” value came to 89.24%. In the test with ob/ob mice [3], the “effect on body weight gain” value was “suppressed” and the “effect on food intake” value was “suppressed”.
